Entries after “also recorded” stand apart in the source; their conditions may differ.
Experiments:
Assay type in all cases: physicochemical
[1] = Thermal gravimetry (TG) loss of weight; settings: for loss of weight as measured by thermal gravimetry (TG): crystalline salt forms
Description: The crystalline form of the monohydrochloride salt according to the invention is further characterised by a weight loss of ca. 1.6-1.8% water up to 130° C., as determined by Thermal […]). Under standard conditions, the monohydrochloride salt form of the compound according to the invention is present in the form of the hemihydrate, from which water escapes at a temperature of about 130° C. The TG diagram is also depicted in FIG. 1. For example, the sodium and tartrate salt forms have less good crystallinity properties, which affects the stability of the drug substance. […] Thus, the chloride, succinate and bromide salt forms have unexpectedly better crystalline properties for pharmaceutical development than the sodium and tartrate salt forms.

[2] = Hygroscopicity of the salt forms; settings: for hygroscopicity: in words, judged from TG loss of weight
Text: The monohydrochloride salt form of the compound according to the invention, namely 4-[(Z)-[[4-[(dimethylamino)methyl]phenyl]amino](6-fluoro-1,2-dihydro-2-oxo-3H-indol-3-ylidene)methyl]-benzenepropanoic acid monohydrochloride, is a yellow crystalline powder with irregular shaped crystals. […] For example, the sodium and tartrate salt forms have less good crystallinity properties, which affects the stability of the drug substance. […] Thus, the chloride, succinate and bromide salt forms have unexpectedly better crystalline properties for pharmaceutical development than the sodium and tartrate salt forms.

[3] = Intrinsic dissolution rate
Text: (§1) Furthermore, although all the above mentioned salt forms are characterized by a low solubility over almost the whole pH range, the chloride salt form presents the advantage of a better dissolution rate.

[4] = Solubility in aqueous media over the pH range; settings: over a wide pH-range
Text: as §1

[5] = Crystallinity after intensive milling or compression
Text: The monohydrochloride salt form of the compound according to the invention, namely 4-[(Z)-[[4-[(dimethylamino)methyl]phenyl]amino](6-fluoro-1,2-dihydro-2-oxo-3H-indol-3-ylidene)methyl]-benzenepropanoic acid monohydrochloride, is a yellow crystalline powder with irregular shaped crystals.

SMILES	loss of weight as measured by thermal gravimetry (TG) [1]	hygroscopicity [2]	intrinsic dissolution rate [3]	solubility in aqueous media [4]	weight loss of water, determined by Thermal Gravimetry (TG) ([1]; up to 130° C., crystalline form)	hygroscopicity ([2]; listed as monohydrochloride salt form, monohydrochloride)	hygroscopicity ([2]; monohydrochloride)	change in crystal modification ([2]; on moisture uptake (slightly hygroscopic))	change in crystallinity [5]
CN(C)Cc1ccc(N/C(=C2\C(=O)Nc3cc(F)ccc32)c2ccc(CCC(=O)O)cc2)cc1 [bromide, 4-[(Z)-[[4-[(dimethylamino)methyl]phenyl]amino](6-fluoro-1,2-dihydro-2-oxo-3H-indol-3-ylidene)methyl]-benzenepropanoic acid]	ca. 2.2%	slight hygroscopicity	very slow	rather low solubility					
CN(C)Cc1ccc(N/C(=C2\C(=O)Nc3cc(F)ccc32)c2ccc(CCC(=O)O)cc2)cc1.Cl [monohydrochloride, 4-[(Z)-[[4-[(dimethylamino)methyl]phenyl]amino](6-fluoro-1,2-dihydro-2-oxo-3H-indol-3-ylidene)methyl]-benzenepropanoic acid monohydrochloride]	ca. 1.7%		acceptable fast	rather low solubility	1.6-1.8%	slightly hygroscopic; also recorded: slight hygroscopicity	slight hygroscopicity	no change in crystal modification is observed	No significant change in crystallinity
CN(C)Cc1ccc(N/C(=C2\C(=O)Nc3cc(F)ccc32)c2ccc(CCC(=O)O)cc2)cc1 [sodium, 4-[(Z)-[[4-[(dimethylamino)methyl]phenyl]amino](6-fluoro-1,2-dihydro-2-oxo-3H-indol-3-ylidene)methyl]-benzenepropanoic acid]	ca. 15%	strong hygroscopicity							
CN(C)Cc1ccc(N/C(=C2\C(=O)Nc3cc(F)ccc32)c2ccc(CCC(=O)O)cc2)cc1 [succinate, 4-[(Z)-[[4-[(dimethylamino)methyl]phenyl]amino](6-fluoro-1,2-dihydro-2-oxo-3H-indol-3-ylidene)methyl]-benzenepropanoic acid]	ca. 1.5%	slight hygroscopicity	very slow	rather low solubility					
CN(C)Cc1ccc(N/C(=C2\C(=O)Nc3cc(F)ccc32)c2ccc(CCC(=O)O)cc2)cc1 [tartrate, 4-[(Z)-[[4-[(dimethylamino)methyl]phenyl]amino](6-fluoro-1,2-dihydro-2-oxo-3H-indol-3-ylidene)methyl]-benzenepropanoic acid]	ca. 4.3%	strong hygroscopicity							
